Laboratory results from PubChem BioAssay (NCI).
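96-well plates; 48 h exposure; 5 concentrations. Endpoints by linear interpolation between flanking doses. Not reached: highest tested concentration assigned. GI50: concentration for 50% inhibition of growth. TGI marks complete inhibition of growth.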

Experiments:
Test in all cases: NCI-60 cell line screen, 48 h
[1] = tested on: 786-0 renal
[2] = tested on: A498 renal
[3] = tested on: A549 NSCLC
[4] = tested on: ACHN renal
[5] = tested on: BT-549 breast
[6] = tested on: CAKI-1 renal
[7] = tested on: CCRF-CEM leukemia
[8] = tested on: COLO 205 colon
[9] = tested on: DU-145 prostate
[10] = tested on: EKVX NSCLC
[11] = tested on: HCC-2998 colon
[12] = tested on: HCT-116 colon
[13] = tested on: HCT-15 colon
[14] = tested on: HL-60(TB) leukemia
[15] = tested on: HOP-62 NSCLC
[16] = tested on: HOP-92 NSCLC
[17] = tested on: HS 578T breast
[18] = tested on: HT29 colon
[19] = tested on: IGROV1 ovarian
[20] = tested on: K-562 leukemia
[21] = tested on: KM12 colon
[22] = tested on: LOX IMVI melanoma
[23] = tested on: M14 melanoma
[24] = tested on: MALME-3M melanoma
[25] = tested on: MCF7 breast
[26] = tested on: MDA-MB-231 breast
[27] = tested on: MDA-MB-435
[28] = tested on: MDA-N
[29] = tested on: MOLT-4 leukemia
[30] = tested on: NCI-H226 lung
[31] = tested on: NCI-H23 lung
[32] = tested on: NCI-H460 lung
[33] = tested on: NCI-H522 lung
[34] = tested on: NCI/ADR-RES ovarian
[35] = tested on: OVCAR-3 ovarian
[36] = tested on: OVCAR-4 ovarian
[37] = tested on: OVCAR-5 ovarian
[38] = tested on: OVCAR-8 ovarian
[39] = tested on: PC-3 prostate
[40] = tested on: RPMI-8226 leukemia
[41] = tested on: SF-268 CNS
[42] = tested on: SF-295 CNS
[43] = tested on: SF-539 CNS
[44] = tested on: SK-MEL-2 melanoma
[45] = tested on: SK-MEL-28 melanoma
[46] = tested on: SK-MEL-5 melanoma
[47] = tested on: SK-OV-3 ovarian
[48] = tested on: SN12C renal
[49] = tested on: SNB-19 CNS
[50] = tested on: SNB-75 CNS
[51] = tested on: SR leukemia
[52] = tested on: SW-620 colon
[53] = tested on: T-47D breast
[54] = tested on: TK-10 renal
[55] = tested on: U251 CNS
[56] = tested on: UACC-257 melanoma
[57] = tested on: UACC-62 melanoma
[58] = tested on: UO-31 renal
[59] = tested on: RXF 393 renal

CC1(C)OC(CP(c2ccccc2)c2ccccc2)C(CP(c2ccccc2)c2ccccc2)O1 (centres undefined)
TGI [1]: > 100 µM | TGI [2]: > 100 µM | TGI [3]: > 100 µM | GI50 [4]: 2.98 µM | TGI [4]: > 100 µM | TGI [5]: > 100 µM | TGI [6]: > 100 µM | TGI [7]: 45.5 µM | TGI [8]: 2.75 µM | TGI [9]: > 55.5 µM | TGI [10]: > 100 µM | TGI [11]: > 100 µM | TGI [12]: > 100 µM | TGI [13]: > 100 µM | TGI [14]: 1.84 µM | GI50 [15]: 0.56 µM | TGI [15]: > 100 µM | TGI [16]: > 27.7 µM | TGI [17]: > 100 µM | TGI [18]: > 100 µM | TGI [19]: > 100 µM | TGI [20]: > 100 µM | TGI [21]: > 38.1 µM | TGI [22]: > 100 µM | TGI [23]: > 100 µM | TGI [24]: 41.1 µM | TGI [25]: > 100 µM | TGI [26]: > 100 µM | TGI [27]: > 100 µM | TGI [28]: > 28.1 µM | TGI [29]: > 100 µM | TGI [30]: > 100 µM | TGI [31]: > 22.5 µM | TGI [32]: > 100 µM | TGI [33]: > 22.7 µM | TGI [34]: > 100 µM | TGI [35]: > 100 µM | TGI [36]: > 87.3 µM | TGI [37]: 7.73 µM | TGI [38]: > 100 µM | TGI [39]: > 100 µM | GI50 [40]: 2.75 µM | TGI [40]: 14.4 µM | TGI [41]: > 100 µM | TGI [42]: > 100 µM | TGI [43]: > 100 µM | TGI [44]: 10.7 µM | TGI [45]: > 100 µM | TGI [46]: > 26.4 µM | TGI [47]: > 100 µM | TGI [48]: > 100 µM | TGI [49]: > 100 µM | GI50 [50]: 0.865 µM | TGI [50]: 5.33 µM | TGI [51]: > 100 µM | TGI [52]: > 100 µM | GI50 [53]: 0.173 µM | TGI [53]: 0.947 µM | TGI [54]: > 100 µM | TGI [55]: > 100 µM | TGI [56]: > 100 µM | TGI [57]: > 100 µM | GI50 [58]: 2.78 µM | TGI [58]: > 100 µM

CCOC(=O)[C@@H]1CCN2CN(c3ccc(OC)cc3)N=C(c3ccccc3)[C@@]12c1ccccc1
TGI [1]: 51.7 µM | TGI [2]: 53.5 µM | TGI [3]: > 100 µM | TGI [4]: 91.5 µM | TGI [5]: 55.2 µM | TGI [6]: > 100 µM | TGI [7]: > 100 µM | TGI [8]: 61.3 µM | TGI [9]: 70.7 µM | TGI [10]: > 100 µM | TGI [11]: 67.1 µM | TGI [12]: 40.2 µM | TGI [13]: 80.6 µM | TGI [14]: > 100 µM | TGI [15]: 62.6 µM | TGI [16]: 27.9 µM | TGI [17]: 70.3 µM | TGI [18]: 72.4 µM | TGI [19]: 72.1 µM | TGI [20]: > 100 µM | TGI [21]: > 100 µM | TGI [22]: 29.6 µM | TGI [23]: 51.3 µM | TGI [24]: 37.9 µM | TGI [25]: 50 µM | TGI [26]: > 100 µM | TGI [27]: > 100 µM | TGI [28]: > 100 µM | TGI [29]: > 100 µM | TGI [30]: 38.9 µM | TGI [31]: 73.5 µM | TGI [32]: > 100 µM | TGI [33]: 49.5 µM | TGI [34]: 67.9 µM | TGI [36]: > 100 µM | TGI [37]: > 100 µM | TGI [38]: 61.3 µM | TGI [39]: > 100 µM | TGI [40]: 82.6 µM | TGI [59]: 35.7 µM | TGI [41]: > 100 µM | TGI [42]: 77.1 µM | TGI [44]: 46.1 µM | TGI [45]: 56 µM | TGI [46]: 30.5 µM | TGI [47]: > 100 µM | TGI [48]: 34.7 µM | TGI [49]: > 100 µM | TGI [50]: 57.7 µM | TGI [51]: > 100 µM | TGI [52]: > 100 µM | TGI [53]: 74.6 µM | TGI [54]: > 100 µM | TGI [55]: 79.6 µM | TGI [56]: 49.7 µM | TGI [57]: 35 µM | TGI [58]: 77.2 µM

CC1(c2cccc(Cl)c2)CC(c2cccc(Cl)c2)=C(C#N)C(=C(C#N)C#N)N1 (centres undefined)
TGI [1]: 30.1 µM | TGI [2]: 39.3 µM | TGI [3]: 42.1 µM | TGI [4]: 31.9 µM | TGI [5]: 51.2 µM | TGI [6]: 32.3 µM | TGI [7]: > 100 µM | TGI [8]: 29.9 µM | TGI [9]: 29.3 µM | TGI [10]: 46.5 µM | TGI [11]: 30.3 µM | TGI [12]: 34.1 µM | TGI [13]: 33.8 µM | TGI [14]: 46.2 µM | TGI [15]: 41.3 µM | TGI [16]: 21.4 µM | TGI [17]: 34.1 µM | TGI [18]: 91.2 µM | TGI [19]: 31.8 µM | TGI [20]: > 100 µM | TGI [21]: 39 µM | TGI [22]: 39 µM | TGI [23]: 31.9 µM | TGI [24]: 35.2 µM | TGI [25]: 51.6 µM | TGI [26]: 48.6 µM | TGI [27]: 35.3 µM | TGI [28]: 39.7 µM | TGI [29]: 57.3 µM | TGI [30]: 60.9 µM | TGI [31]: 39 µM | TGI [32]: 94.3 µM | TGI [34]: 48.1 µM | TGI [35]: 23 µM | TGI [36]: 32.6 µM | TGI [37]: 46.4 µM | TGI [38]: 42.6 µM | TGI [39]: 34.3 µM | TGI [40]: 59.4 µM | TGI [59]: 29.3 µM | TGI [41]: 20.1 µM | TGI [42]: 33.4 µM | TGI [43]: 37.2 µM | TGI [44]: 64.8 µM | TGI [45]: 74 µM | TGI [46]: 28.6 µM | TGI [47]: 32.8 µM | TGI [48]: 36.4 µM | TGI [49]: 39.9 µM | TGI [50]: 34.3 µM | TGI [51]: 65.3 µM | TGI [52]: > 100 µM | TGI [53]: 38 µM | TGI [54]: 31.8 µM | TGI [55]: 37.8 µM | TGI [56]: 42 µM | TGI [57]: 34.6 µM | TGI [58]: 29.3 µM
